Measured values reported in US20220324835A1 (Nurix Therapeutics, Inc., priority 2018, published 2022).

Columns and labels:
Cbl-b [1] = target: T1, Cbl-b (Homo sapiens, UniProt Q13191); test: Cbl-b inhibition assay (Cbl-b activity assay, FRET, Biological Example 1; 100 mM NaCl, 60 nM Src kinase); type: biochemical; settings: upper bound stated in text lists; read-out: IC50 values in the Cbl-b inhibition assay of Biological Example 1
In short: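 Binding-based Cbl-b activity assay. Src-phosphorylated, N-terminally biotin-Avi-tagged Cbl-b recruits labelled UbcH5B-Ub, and proximity to streptavidin-terbium yields FRET.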

T-cell [2] = test: IL-2 secretion from T-cells co-stimulated with anti-CD3 and anti-CD28 antibody (Biological Example 2); type: cell-based, human; settings: Homo sapiens, T-cell, primary human total T-cells, baseline = anti-CD3/anti-CD28 stimulated cells without inhibitor, read-out: IL-2 secretion, Anti-CD3/Anti-CD28 stimulation, fold change over baseline; for fold induction at 0.3 µM: 0.3 μM compound; for fold induction at 1 µM: 1 μM compound; for fold induction at 4 µM: 4 μM compound
In short: (§1)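 No assay protocol given; T-cells stimulated with anti-CD3 alone or anti-CD3 plus anti-CD28, with or without Cbl-b inhibitor. Activation read as IL-2 secretion or CD25 surface staining, expressed as fold over baseline from uninhibited cells […].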

T-cell [3] = test: CD25 cell surface staining on T-cells co-stimulated with anti-CD3 and anti-CD28 antibody (Biological Example 2); type: cell-based, human; settings: Homo sapiens, T-cell, primary human total T-cells, baseline = anti-CD3/anti-CD28 stimulated cells without inhibitor, read-out: CD25 staining, Anti-CD3/Anti-CD28 stimulation, fold change over baseline; for fold induction at 0.3 µM: 0.3 μM compound; for fold induction at 1 µM: 1 μM compound; for fold induction at 4 µM: 4 μM compound
In short: as §1

Cbl-b [4] = target: T1, Cbl-b; test: Cbl-b activity assay (Cbl-b inhibition assay), TR-FRET of Cbl-b interaction with UbcH5B-Ub; type: biochemical; settings: assay buffer with 100 mM NaCl, 60 nM Src kinase; read-out: Cbl-b activity IC50
In short: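 TR-FRET readout of Cbl-b binding to Bodipy-fluorescein N-terminally labeled Ub conjugated to UbcH5B C85K, measured with compound present. After compound incubation, 60 nM Src kinase with 1 mM ATP and 5 mM MgCl2 (final) was added for 1.5 h, then a further 1 h incubation; asterisked values used 50 mM NaCl buffer and 30 nM Src.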

T-cell [5] = test: IL-2 secretion from T-cells stimulated with anti-CD3 antibody alone (Biological Example 2); type: cell-based; settings: primary human total T-cells, read-out: IL-2 secretion, Anti-CD3 stimulation, fold change over baseline; for fold induction at 1 µM: 1 μM compound; for fold induction at 8 µM: 8 μM compound
T-cell [6] = test: CD25 cell surface staining on T-cells stimulated with anti-CD3 antibody alone (Biological Example 2); type: cell-based; settings: primary human total T-cells, baseline = anti-CD3/anti-CD28 stimulated cells without inhibitor, read-out: CD25 staining, Anti-CD3 stimulation, fold change over baseline; for fold induction at 1 µM: 1 μM compound; for fold induction at 8 µM: 8 μM compound

T1 sequence (Q13191 36-427): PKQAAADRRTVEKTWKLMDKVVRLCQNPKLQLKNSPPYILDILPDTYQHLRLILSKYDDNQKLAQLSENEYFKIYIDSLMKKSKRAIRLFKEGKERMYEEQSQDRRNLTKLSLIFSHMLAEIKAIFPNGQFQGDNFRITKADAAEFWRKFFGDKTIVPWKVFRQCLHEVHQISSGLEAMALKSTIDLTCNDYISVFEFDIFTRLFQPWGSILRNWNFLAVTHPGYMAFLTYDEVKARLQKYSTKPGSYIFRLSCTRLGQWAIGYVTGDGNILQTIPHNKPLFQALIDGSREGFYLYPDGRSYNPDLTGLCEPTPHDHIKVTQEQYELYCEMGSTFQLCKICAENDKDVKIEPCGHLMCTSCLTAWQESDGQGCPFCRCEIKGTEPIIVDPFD

Row | Structure (SMILES) | IC50 (Cbl-b [1]) | fold induction at 0.3 µM (T-cell [2]) | fold induction at 1 µM (T-cell [2]) | fold induction at 4 µM (T-cell [2]) | fold induction at 0.3 µM (T-cell [3]) | fold induction at 1 µM (T-cell [3]) | fold induction at 4 µM (T-cell [3]) | IC50 (Cbl-b [4]) | fold induction at 1 µM (T-cell [5]) | fold induction at 8 µM (T-cell [5]) | fold induction at 1 µM (T-cell [6]) | fold induction at 8 µM (T-cell [6])
1 | Cn1cnnc1C[C@]1(c2cccc(N3Cc4c(cccc4C(F)(F)F)C3=O)c2)C[C@H](CO)C1 [Compound 470, 2-{3-[(1R,3R)-3-(hydroxymethyl)-1-[(4-methyl-4H-1,2,4-triazol-3-yl)methyl]cyclobutyl]phenyl}-4-(trifluoromethyl)-2,3-dihydro-1H-isoindol-1-one] | ≤ 300 nM | 1.01 to 2.5 | 2.51 to 5 | 5 to 7.5 | 1.31 to 1.5 | 1.51 to 1.75 | 1.51 to 1.75 | 100 to 300 nM | 0.101 to 0.15 | > 0.201 | 0.801 to 1 | > 1
2 | Cc1conc1CC1(c2cccc(NC(=O)c3cc(CN4CCC5(CC5)C4)cc(C4CC4)n3)c2)COC1 [Compound 500, 4-{5-azaspiro[2.4]heptan-5-ylmethyl}-6-cyclopropyl-N-(3-{3-[(4-methyl-1,2-oxazol-3-yl)methyl]oxetan-3-yl}phenyl)pyridine-2-carboxamide] | ≤ 100 nM | > 7.5 | > 7.5 |  | 1.31 to 1.5 | 1.31 to 1.5 |  | < 100 nM | > 0.201 |  | > 1 | 
3 | Cn1cnnc1CC1(c2cccc(N3Cc4c(cc(CN5CCCC(F)(F)CC5)cc4C(F)(F)F)C3=O)c2)COC1 [Compound 528, 6-((4,4-difluoroazepan-1-yl)methyl)-2-(3-(3-((4-methyl-4H-1,2,4-triazol-3-yl)methyl)oxetan-3-yl)phenyl)-4-(trifluoromethyl)isoindolin-1-one] | ≤ 100 nM | > 7.5 | > 7.5 |  | 1.01 to 1.3 | 1.01 to 1.3 |  | < 100 nM | > 0.201 |  | > 1 | 
4 | C[C@H](Cc1nncn1C)c1cccc(N2Cc3c(cc([C@@H](C)N4CC(O)C4)cc3C(F)(F)F)C2=O)c1 [Compound 405, 6-((R)-1-(3-hydroxyazetidin-1-yl)ethyl)-2-(3-((R)-1-(4-methyl-4H-1,2,4-triazol-3-yl)propan-2-yl)phenyl)-4-(trifluoromethyl)isoindolin-1-one] | ≤ 100 nM | 2.51 to 5 | 5 to 7.5 | > 7.5 | 1.01 to 1.3 | 1.31 to 1.5 | 1.31 to 1.5 | < 100 nM | > 0.201 | > 0.201 | 0.801 to 1 | > 1
5 | Cn1cnnc1CC1(c2cccc(N3Cc4c(cc(CN5CCC(C)(F)C5)cc4C(F)(F)F)C3=O)c2)COC1 (stereo not drawn) [Compound 435, 6-((3-fluoro-3-methylpyrrolidin-1-yl)methyl)-2-(3-(3-((4-methyl-4H-1,2,4-triazol-3-yl)methyl)oxetan-3-yl)phenyl)-4-(trifluoromethyl)isoindolin-1-one] | ≤ 100 nM | > 7.5 | > 7.5 |  | 1.31 to 1.5 | 1.31 to 1.5 |  | < 100 nM | > 0.201 |  | > 1 | 
6 | Cn1cnnc1CC1(c2cccc(N3Cc4c(cc(CN5CC[C@H]6C[C@H]65)cc4C(F)(F)F)C3=O)c2)COC1 (single isomer, unassigned) [Compound 486a] | ≤ 100 nM | > 7.5 | > 7.5 |  | 1.51 to 1.75 | 1.51 to 1.75 |  | < 100 nM | > 0.201 |  | > 1 | 
7 | C[C@H](c1cc2c(c(C(F)(F)F)c1)CN(c1cccc(C3(Cc4nncn4C)COC3)c1)C2=O)N1CCC2(CC1)CC2 [Example 558b, (R)-6-(1-(6-azaspiro[2.5]octan-6-yl)ethyl)-2-(3-(3-((4-methyl-4H-1,2,4-triazol-3-yl)methyl)oxetan-3-yl)phenyl)-4-(trifluoromethyl)isoindolin-1-one] | ≤ 100 nM | > 7.5 | > 7.5 |  | 1.01 to 1.3 | 1.01 to 1.3 |  | < 100 nM | > 0.201 |  | > 1 | 
8 | Cc1cc(C(=O)Nc2cccc(C3(Cc4nocc4C)COC3)c2)nc(C2CC2)n1 [Compound 509, 2-cyclopropyl-6-methyl-N-(3-{3-[(4-methyl-1,2-oxazol-3-yl)methyl]oxetan-3-yl}phenyl)pyrimidine-4-carboxamide] | ≤ 100 nM | > 7.5 | > 7.5 |  | 1.31 to 1.5 | 1.31 to 1.5 |  | < 100 nM | > 0.201 |  | > 1 | 
9 | Cn1cnnc1C(F)(F)C1(c2cccc(N3Cc4c(cc(CN5CC[C@H](F)C5)cc4C(F)(F)F)C3=O)c2)CC1 [Compound 462, (S)-2-(3-(1-(difluoro(4-methyl-4H-1,2,4-triazol-3-yl)methyl)cyclopropyl)phenyl)-6-((3-fluoropyrrolidin-1-yl)methyl)-4-(trifluoromethyl)isoindolin-1-one] | ≤ 100 nM | 5 to 7.5 | > 7.5 |  | 1.01 to 1.3 | 1.31 to 1.5 |  | < 100 nM | > 0.201 |  | > 1 | 
10 | Cn1cnnc1[C@H](F)[C@@](C)(F)c1cccc(N2Cc3c(cc(C4CC4)cc3C(F)(F)F)C2=O)c1 (stereo in doubt) [Compound 483, 6-cyclopropyl-2-[3-[(1S,2S)-1,2-difluoro-1-(4-methyl-4H-1,2,4-triazol-3-yl)propan-2-yl]phenyl]-4-(trifluoromethyl)-2,3-dihydro-1H-isoindol-1-one] | ≤ 300 nM | < 1 | 1.01 to 2.5 | 1.01 to 2.5 | 1.01 to 1.3 | 1.01 to 1.3 | 1.01 to 1.3 | 100 to 300 nM | 0.051 to 0.1 | 0.051 to 0.1 | 0.601 to 0.8 | 0.801 to 1
11 | CC(c1cc2c(c(C(F)(F)F)c1)CN(c1cccc(C3(Cc4nncn4C)COC3)c1)C2=O)N1CC(S(C)(=O)=O)C1 (stereo not drawn) [Compound 430, 2-(3-(3-((4-methyl-4H-1,2,4-triazol-3-yl)methyl)oxetan-3-yl)phenyl)-6-(l-(3-(methylsulfonyl)azetidin-1-yl)ethyl)-4-(trifluoromethyl)isoindolin-1-one] | ≤ 100 nM | 1.01 to 2.5 | 1.01 to 2.5 |  | 1.01 to 1.3 | 1.01 to 1.3 |  | < 100 nM | 0.101 to 0.15 |  | 0.601 to 0.8 | 
12 | C[C@H](c1cc2c(c(C(F)(F)F)c1)CN(c1cccc(C3(Cc4nncn4C)COC3)c1)C2=O)N1C[C@H]2C[C@H]2C1 [Compound 541b, 6-((1R)-1-(3-azabicyclo[3.1.0]hexan-3-yl)ethyl)-2-(3-(3-((4-methyl-4H-1,2,4-triazol-3-yl)methyl)oxetan-3-yl)phenyl)-4-(trifluoromethyl)isoindolin-1-one] | ≤ 100 nM | > 7.5 | > 7.5 |  | 1.31 to 1.5 | 1.31 to 1.5 |  | < 100 nM | > 0.201 |  | > 1 | 
